Experiment: xn = mol fraction of the nth substance listed
Details: 101.3 kPa

CCCC[P+](CCCC)(CCCC)CCCC.[Br-] + OCCO + O
viscosity [mPa·s]
Details	x1 = 0.0383, x2 = 0.0767	x1 = 0.06893, x2 = 0.1381	x1 = 0.09557, x2 = 0.1914	x1 = 0.1302, x2 = 0.2608	x1 = 0.1675, x2 = 0.3355	x1 = 0.1968, x2 = 0.3942	x1 = 0.2368, x2 = 0.4742	x1 = 0.2634, x2 = 0.5276	x1 = 0.3054, x2 = 0.6116	x1 = 0.333, x2 = 0.667
293.15 K	4.67	11.5	20.5	35.1	50.8	62	74.1	82.3	105	122
298.15 K	3.8	9.08	16.1	27.2	38.8	48.1	57	64.1	78.1	93.4
303.15 K	3.15	7.34	13	21.7	31	38.2	44.5	49.4	63.7	72.4
308.15 K	2.74	6.11	10.6	17.7	24.9	30.1	35.3	39.5	50.2	56.9
313.15 K	2.35	5.21	8.88	14.4	20.5	24.5	28.3	32.2	39.9	45.3
318.15 K	2.08	4.43	7.33	11.9	16.8	20.1	23.1	26.4	32.4	36.6
323.15 K	1.84	3.8	6.34	10.1	13.9	16.8	19	21.9	26.6	29.9

— the CheMixHub ionic liquid set
